{
  "source": "patent US20030003057A1",
  "about": "“Methods for administering leuprolide by inhalation” (priority 2000, published 2003)",
  "test": "clinical",
  "conditions": "human, in vivo",
  "source_text": "Capsules were bottled and the bottles individually enclosed in an appropriately labeled sealed foil pouch with desiccant and stored at room temperature. […] Subjects were instructed to inhale deeply and forcefully while wearing nose clips. Inhalations were followed by a 5 second breath hold prior to exhalation. […] Leuprolide was supplied in multiple dose vials as a sterile aqueous solution for injection. […] The pH was adjusted with sodium hydroxide or acetic acid. Prior to administration, each vial was visually inspected for particulate matter or discoloration. The leuprolide vials were stored at room temperature. […] The injection was given in the opposite arm to that used for blood sample for pharmacokinetic assessments. There were 2 dosing visits, followed by a post study medical 3 to 14 days after the last dose. The interval between doses was no less than 7 days. […] [table] Relative bioavailability: The bioavailability (BA) of the leuprolide formulation delivered from Turbospin, relative to intravenous injection of leuprolide, was determined from the ratio of log-transformed AUC values, according to the following equation, Relative BA=(InAUCPulmoSphere/InAUCiv) * (nominal dosePulmoSphere/doseiv), […]",
  "data": [
    {"smiles": "CCNC(=O)[C@@H]1CCCN1C(=O)[C@H](CCCNC(=N)N)NC(=O)[C@H](CC(C)C)NC(=O)[C@@H](CC(C)C)NC(=O)[C@H](Cc1ccc(O)cc1)NC(=O)[C@H](CO)NC(=O)[C@H](Cc1c[nH]c2ccccc12)NC(=O)[C@H](Cc1c[nH]cn1)NC(=O)[C@@H]1CCC(=O)N1", "note": "[leuprolide]", "values": [
      {"measurement": "bioavailability", "result": "~18", "unit": "%"}
    ]}
  ]
}
